Measured values published in PubChem BioAssay AID192 (DTP/NCI, 2004).
Values joined by “and” are separate entries in the source; they are usually repeats but may differ in a detail not shown here. Equal entries are not always repeated. Inconclusive results and toxic doses are left out.

Test system: BDF1 mice, B16 melanoma ip, median survival T/C
Assay: NCI In Vivo Anticancer Drug Screen. Data for tumor model B16 Melanoma (intraperitoneal) in B6D2F1 (BDF1) mice
Settings: endpoint: median survival time, schedule: Q01DX009 (ip), higher = longer survival
In short: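 Mice with transplantable tumors; drug vs vehicle groups; endpoint survival or tumor size; value = T/C.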

[1] = dose: 50.0 mg/kg/injection, vehicle: Klucel (hydroxypropylcellulose) (HPC)
[2] = dose: 100.0 mg/kg/injection, vehicle: Klucel (hydroxypropylcellulose) (HPC)
[3] = dose: 200.0 mg/kg/injection, vehicle: Klucel (hydroxypropylcellulose) (HPC)
[4] = dose: 200.0 mg/kg/injection, vehicle: saline with Tween-80
[5] = dose: 400.0 mg/kg/injection, vehicle: saline with Tween-80
[6] = dose: 25.0 mg/kg/injection, vehicle: saline with Tween-80
[7] = dose: 50.0 mg/kg/injection, vehicle: saline with Tween-80
[8] = dose: 25.0 mg/kg/injection, vehicle: Klucel (hydroxypropylcellulose) (HPC)

Cc1cc2c(c(O)c1CN1CCOCC1)C1=C(CCCC1)C(C)(C)O2
T/C (dose: 32.0 mg/kg/injection, vehicle: Klucel (hydroxypropylcellulose) (HPC)): 108 % of control | T/C (dose: 64.0 mg/kg/injection, vehicle: Klucel (hydroxypropylcellulose) (HPC)): 98 % of control | T/C (dose: 128.0 mg/kg/injection, vehicle: Klucel (hydroxypropylcellulose) (HPC)): 93 % of control | T/C (dose: 256.0 mg/kg/injection, vehicle: Klucel (hydroxypropylcellulose) (HPC)): 103 % of control

Cc1ccc(NC(=O)N(CCCl)N=O)cc1C
T/C (dose: 3.12 mg/kg/injection, vehicle: Klucel (hydroxypropylcellulose) (HPC)): 150 % of control | T/C (dose: 6.25 mg/kg/injection, vehicle: Klucel (hydroxypropylcellulose) (HPC)): 150 % of control

CCCC(=O)c1ccc(OC)c(OC)c1
T/C [1]: 86 % of control | T/C [2]: 93 % of control | T/C [3]: 96 % of control

CC1OC(OCc2ccc3c(c2)C(=O)c2ccccc2C3=O)CC(N)C1O (centres undefined)
T/C (dose: 1.56 mg/kg/injection, vehicle: water): 102 % of control | T/C (dose: 3.13 mg/kg/injection, vehicle: water): 93 % of control | T/C (dose: 6.25 mg/kg/injection, vehicle: water): 115 % of control | T/C (dose: 12.5 mg/kg/injection, vehicle: water): 115 % of control | T/C (dose: 50.0 mg/kg/injection, vehicle: water): 94 % of control

CC(=O)CC(=O)OCc1ccccc1
T/C (dose: 100.0 mg/kg/injection, vehicle: saline with Tween-80): 107 % of control | T/C [4]: 105 % of control | T/C [5]: 100 % of control

Cc1cc[n+](CCc2ccccc2)cc1
T/C (dose: 6.25 mg/kg/injection, vehicle: saline with Tween-80): 92 % of control | T/C (dose: 12.5 mg/kg/injection, vehicle: saline with Tween-80): 88 % of control | T/C [6]: 95 % of control | T/C [7]: 88 % of control

CC(=O)c1ccccc1I
T/C [8]: 102 % of control and 113 % of control | T/C [1]: 105 % of control and 106 % of control | T/C [2]: 105 % of control and 106 % of control | T/C [3]: 102 % of control and 106 % of control

c1ccc(C2CCCCCC2)cc1
T/C (dose: 6.25 mg/kg/injection, vehicle: other): 108 % of control | T/C (dose: 12.5 mg/kg/injection, vehicle: other): 98 % of control | T/C (dose: 25.0 mg/kg/injection, vehicle: other): 111 % of control | T/C (dose: 50.0 mg/kg/injection, vehicle: other): 109 % of control | T/C (dose: 100.0 mg/kg/injection, vehicle: other): 89 % of control

Cc1ncc(CNC(=O)N(CCCl)N=O)c(N)n1
T/C (dose: 1.56 mg/kg/injection, vehicle: suspension in saline): 155 % of control | T/C (dose: 3.12 mg/kg/injection, vehicle: suspension in saline): 193 % of control | T/C (dose: 6.25 mg/kg/injection, vehicle: suspension in saline): 279 % of control | T/C (dose: 12.5 mg/kg/injection, vehicle: Klucel (hydroxypropylcellulose) (HPC)): 164 % of control | T/C (dose: 12.5 mg/kg/injection, vehicle: suspension in saline): 322 % of control

CCCCN(C)/N=N/c1nc[nH]c1C(N)=O
T/C (dose: 10.0 mg/kg/injection, vehicle: carboxymethylcellulose (CMC)): 111 % of control | T/C (dose: 20.0 mg/kg/injection, vehicle: carboxymethylcellulose (CMC)): 120 % of control | T/C [6]: 109 % of control | T/C [7]: 112 % of control

Cc1cc(C)cc(OCC2CNC(=O)O2)c1 (centres undefined)
T/C [8]: 94 % of control | T/C [1]: 108 % of control | T/C [2]: 91 % of control | T/C [3]: 94 % of control | T/C (dose: 400.0 mg/kg/injection, vehicle: Klucel (hydroxypropylcellulose) (HPC)): 100 % of control

COc1cc(C=O)cc(O)c1O
T/C (dose: 100.0 mg/kg/injection, vehicle: saline): 95 % of control | T/C (dose: 200.0 mg/kg/injection, vehicle: saline): 111 % of control

Clc1cccc(/C=C2\c3cc(Cl)ccc3-c3c(Cl)cc(Cl)cc32)c1
T/C [4]: 100 % of control | T/C [5]: 97 % of control | T/C (dose: 800.0 mg/kg/injection, vehicle: saline with Tween-80): 93 % of control
